The values below come from patent publication US6376670B1, “Quinoline-indole antimicrobial agents, uses and compositions related thereto” (Sepracor Inc., priority 1997, dated 2002).

In experiment [1] the test system is S. aureus 8325-4. Kind of experiment: Lytic response (culture turbidity 600 nm) in MH broth. Format: cell-based. The conditions noted are these: added at 5×, 10×, and 20×MIC to early log phase cultures. As to the method:
(§1) Activities of the quinoline-indoles and comparator agents were determined against MSSA (n=32), MRSA (n=31) and VISA (n=7). Susceptibility testing on MH agar was performed using an inoculum of 10^6 c.f.u. Bactericidal, lytic and PAEs were determined on S. aureus 8325-4 in MH broth. Samples were removed for viable numbers on MH agar (for bactericidal response) and culture turbidity (600 nm) (for lytic response). PAEs were determined by a broth dilution method following exposure of bacteria to drugs at 5×MIC for 60 min.
The effects of the quinoline-indoles, and ciprofloxacin and rifampin (controls) on the integrity of S. aureus 8325-4 were examined following addition at 5×, 10×, and 20×MIC to early log phase cultures.
The lysis experiments were performed using classical “time kill-curve” methodology. See V. Lorian, Antibiotics in Laboratory Medicine, 4th ed., Chapter 2; Williams & Wilkins, Baltimore, 1996 (ISBN 0-683-05169-5). Bacteria (e.g., S. aureus) are exposed in liquid culture (early log phase approx […]) to multiples (typically 2×, 5×, 10×, and 20×) of the single cell agar MIC. Drug-free controls are also included. […] The samples are diluted in fresh drug-free medium and aliquots from a range of dilutions spread onto drug-free agar plates and those giving 30-300 colony forming units/plate are counted for quantification of survivors versus time of drug exposure. […]

Experiment [2] concerns S. aureus 8325-4. Kind of experiment: Post-antibiotic effect (PAE), broth dilution method. The conditions noted are these: exposed to 5×MIC for 60 min before washout; PAE = T-C. The format is cell-based. The protocol:
as §1
The PAE, defined as the lag period before the target organism resumes a normal growth rate after exposure to an inhibitor, was determined for D, A, and rifampin (control) against S. aureus 8325-4. Organisms were exposed to 5×MIC for 60 min. before washout and PAE calculated as T-C, wherein T=time required for treated cells to increase 1 log CFU/mL; and C=time required for non-treated control to increase 1 log CFU/ml. after washout with fresh medium. PAEs for D and A were both 40 min and for the rifampin control PAE was 180 mins. The rifampin PAE is in agreement with literature values.
(Dilution methods test growth across graded concentrations, often in twofold steps.)

The structures appear in SMILES notation.

On to `CO[C@H]1/C=C/O[C@@]2(C)Oc3c(C)c(O)c4c(O)c(c(/C=N/N5CCN(C)CC5)c(O)c4c3C2=O)NC(=O)/C(C)=C\C=C\[C@H](C)[C@H](O)[C@@H](C)[C@@H](O)[C@@H](C)[C@H](OC(C)=O)[C@@H]1C` [rifampin], for which, in experiment [1], the “bactericidal mechanism of action (lytic versus non-lytic)” value is on record as “non-lytic”. Besides, the “post-antibiotic effect (PAE)” value in experiment [2] is 180 min.
